Experiments:
Assay type in all cases: functional
Rattus norvegicus [1] = experiment: Inhibition of passive cutaneous anaphylaxis in po dosed Sprague-Dawley rat; conditions: read-out: MED
Rattus norvegicus [2] = experiment: Inhibition of passive cutaneous anaphylaxis in ip dosed Sprague-Dawley rat; conditions: for minimal effective dose: read-out: MED
Rattus norvegicus [3] = experiment: Inhibition of passive cutaneous anaphylaxis in po dosed Sprague-Dawley rat administered with ball-milled suspension; conditions: read-out: MED
Rattus norvegicus [4] = experiment: Ratio of disodium cromoglycate MED to compound MED for inhibition of passive cutaneous anaphylaxis in ip dosed Sprague-Dawley rat
Rattus norvegicus [5] = experiment: Ratio of doxantrazole MED to compound MED for inhibition of passive cutaneous anaphylaxis in po dosed Sprague-Dawley rat
Rattus norvegicus [6] = experiment: Inhibition of passive cutaneous anaphylaxis in ip dosed Sprague-Dawley rat administered with ball-milled suspension; conditions: read-out: MED

SMILES | minimal effective dose (Rattus norvegicus [1]) | minimal effective dose (Rattus norvegicus [2]) | further results
COc1ccc(OC)c2ncc(-c3nn[nH]n3)cc12 | > 50 mg/kg | 5 mg/kg | 
O=C(O)c1cnc2c(ccc3ccccc32)c1 | 50 mg/kg | 25 mg/kg | 
FC(F)(F)c1ccc2cc(-c3nn[nH]n3)cnc2c1 | 25 mg/kg | < 10 mg/kg | 
O=c1c(-c2nn[nH]n2)c[nH]c2c(F)ccc(F)c12 | 10 mg/kg | > 0.156 mg/kg | 
CS(=O)(=O)c1cccc2c(=O)c(-c3nn[nH]n3)c[nH]c12 | > 25 mg/kg | 10 mg/kg | 
COc1ccc2c(O)c(C(=O)O)cnc2c1 | > 100 mg/kg | > 50 mg/kg | 
O=c1c(-c2nn[nH]n2)c[nH]c2c(F)cccc12 | 10 mg/kg | 0.625 mg/kg | minimal effective dose (Rattus norvegicus [3]): 2.5 mg/kg
Cc1ccc2[nH]cc(-c3nn[nH]n3)c(=O)c2c1.O | > 25 mg/kg | 1.25 mg/kg | 
CCc1ccc2c(=O)c(-c3nn[nH]n3)c[nH]c2c1.O | > 10 mg/kg | < 5 mg/kg | 
O=C(O)c1cnc2c(F)cc(F)cc2c1 |  | 25 mg/kg | 
Cc1ccc2cc(-c3nn[nH]n3)cnc2c1C | 25 mg/kg | 1 mg/kg | 
Cl.c1cc2ncc(-c3nn[nH]n3)cc2cc1OC1CCCCC1 | 10 mg/kg | 5 mg/kg | 
O=C(O)c1cnc2cc(C(F)(F)F)ccc2c1 | > 25 mg/kg | > 25 mg/kg | 
Fc1cccc2cc(-c3nn[nH]n3)cnc12 |  | > 10 mg/kg | 
COc1ccc(OC)c2ncc(C(=O)O)cc12 | > 50 mg/kg | > 25 mg/kg | 
O=C([O-])c1cc(=O)c2c(OCC(O)COc3cccc4oc(C(=O)[O-])cc(=O)c34)cccc2o1.[Na+].[Na+] [CROMOLYN SODIUM] |  |  | ED50 (Rattus norvegicus [2]): 2.6 mg/kg
O=c1c(-c2nn[nH]n2)c[nH]c2c(Cl)c(Cl)ccc12 | > 10 mg/kg | > 0.156 mg/kg | 
O.O=C(O)c1cnc2c(F)cccc2c1 | 150 mg/kg | > 25 mg/kg | 

SMILES | minimal effective dose (Rattus norvegicus [1]) | minimal effective dose (Rattus norvegicus [2]) | further results
c1ccc2c(c1)ccc1cc(-c3nn[nH]n3)cnc12 | 10 mg/kg | 5 mg/kg | 
Cl.c1nc2ccc(C3CCCCC3)cc2cc1-c1nn[nH]n1 | > 25 mg/kg | 5 mg/kg | 
FC(F)(F)c1cccc2cc(-c3nn[nH]n3)cnc12 | 25 mg/kg | < 25 mg/kg | 
CSc1cccc2c(=O)c(-c3nn[nH]n3)c[nH]c12 | 25 mg/kg | 10 mg/kg | 
O=c1c(-c2nn[nH]n2)c[nH]c2c(Br)cccc12 | > 10 mg/kg | > 5 mg/kg | 
O=c1c(-c2nn[nH]n2)c[nH]c2c(Cl)cccc12 |  | 0.078 mg/kg | Ratio (Rattus norvegicus [4]): 33; Ratio (Rattus norvegicus [5]): 32; minimal effective dose (Rattus norvegicus [6]): 0.156 mg/kg
O.O=c1c(-c2nn[nH]n2)c[nH]c2ccc(F)cc12 | > 20 mg/kg | 1.25 mg/kg | 
Cl.O=C(O)c1cnc2ccc(F)cc2c1 | > 50 mg/kg |  | 
O=C(O)c1cnc2ccc(OC3CCCCC3)cc2c1 |  | > 25 mg/kg | 
CC(C)Oc1cccc2c(=O)c(-c3nn[nH]n3)c[nH]c12 | 1.25 mg/kg | 0.078 mg/kg | 
CCOc1cccc2cc(C(=O)O)cnc12 | > 50 mg/kg | > 25 mg/kg | 
Cc1cccc2c(=O)c(-c3nn[nH]n3)c[nH]c12 | > 10 mg/kg | > 5 mg/kg | 
O.O=c1c(-c2nn[nH]n2)c[nH]c2ccccc12 | > 20 mg/kg | 1.25 mg/kg | 
Fc1cc(F)c2ncc(-c3nn[nH]n3)cc2c1 | > 50 mg/kg | 10 mg/kg | 
COc1ccc2cc(-c3nn[nH]n3)cnc2c1.Cl | > 25 mg/kg | 5 mg/kg | 
COc1cccc2cc(-c3nn[nH]n3)cnc12 | > 25 mg/kg | 2.5 mg/kg | 
c1ccc2ncc(-c3nn[nH]n3)cc2c1 | 25 mg/kg | 10 mg/kg | 
